Assay results from patent US20140148443A1, “Novel Imidazolines as dual inhibitors of MDM2 and MDMX” (priority 2012, published 2014).

Assays:
GST-tagged MDMX = target: T1, GST-tagged MDMX (Homo sapiens, UniProt O15151); assay: HTRF binding assay of GST-tagged MDMX to p53 peptide
T1 sequence (O15151 1-490): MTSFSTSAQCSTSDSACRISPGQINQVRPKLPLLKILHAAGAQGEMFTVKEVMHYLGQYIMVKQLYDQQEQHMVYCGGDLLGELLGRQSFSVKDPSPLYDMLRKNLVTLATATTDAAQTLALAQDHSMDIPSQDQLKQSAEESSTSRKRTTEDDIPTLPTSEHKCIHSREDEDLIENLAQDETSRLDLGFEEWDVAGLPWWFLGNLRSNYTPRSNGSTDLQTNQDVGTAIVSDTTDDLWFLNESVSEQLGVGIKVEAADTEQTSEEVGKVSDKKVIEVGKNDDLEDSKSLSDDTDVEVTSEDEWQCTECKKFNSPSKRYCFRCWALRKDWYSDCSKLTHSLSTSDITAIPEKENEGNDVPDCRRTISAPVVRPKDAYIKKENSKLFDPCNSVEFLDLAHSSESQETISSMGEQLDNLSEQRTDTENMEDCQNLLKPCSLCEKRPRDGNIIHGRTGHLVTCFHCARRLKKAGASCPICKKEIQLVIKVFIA

[1] = target: recombinant GST-tagged MDM2 (Homo sapiens, UniProt Q00987); assay: HTRF assay of interaction between p53 peptide and GST-tagged MDM2; settings: inhibition of GST-MDM2 (160 ng/ml) binding to biotinylated p53-peptide
Protocol: The ability of a test compound to inhibit the interaction between p53 and MDM2 protein was measured by an HTRF (homogeneous time-resolved fluorescence) assay in which recombinant GST-tagged MDM2 binds to a peptide that resembles the MDM2-interacting region of p53 Aca-[…]-OH hereinafter p53-peptide). Binding of GST-MDM2 protein and p53-peptide (biotinylated on its N-terminal end) is registered by the FRET (fluorescence resonance energy transfer) between Europium (Eu)-labeled anti-GST antibody and streptavidin-conjugated Allophycocyanin (APC).
The test was performed in black flat-bottom 384-well plates (Costar) in a total volume of 40 uL containing: 90 nM biotinylated peptide, 160 ng/ml GST-MDM2, 20 nM streptavidin-APC (PerkinElmerWallac), 2 nM Eu-labeled anti-GST-antibody (PerkinElmerWallac), 0.02% bovine serum albumin (BSA), 1 mM dithiothreitol (DTT) and 20 mM […] (TBS) buffer as follows: add 10 uL of GST-MDM2 (640 ng/ml working solution) in reaction buffer to each well. Add 10 uL diluted compounds (1:5 dilution in reaction buffer) to each well, mix by shaking. Add 20 uL biotinylated p53 peptide (180 nM working solution) in reaction buffer to each well and mix on shaker. Incubate at 37° C. for 1 h. Add […] streptavidin-APC and Eu-anti-GST antibody mixture (6 nM Eu-anti-GST and 60 nM streptavidin-APC working solution) in TBS buffer with 0.02% BSA, shake at room temperature for 30 minutes and read using a TRF-capable plate reader at 665 and 615 nm (Victor 5, Perkin ElmerWallac). If not specified, the reagents were purchased from Sigma Chemical Co.

Chain of recombinant GST-tagged MDM2 (Q00987 whole entry): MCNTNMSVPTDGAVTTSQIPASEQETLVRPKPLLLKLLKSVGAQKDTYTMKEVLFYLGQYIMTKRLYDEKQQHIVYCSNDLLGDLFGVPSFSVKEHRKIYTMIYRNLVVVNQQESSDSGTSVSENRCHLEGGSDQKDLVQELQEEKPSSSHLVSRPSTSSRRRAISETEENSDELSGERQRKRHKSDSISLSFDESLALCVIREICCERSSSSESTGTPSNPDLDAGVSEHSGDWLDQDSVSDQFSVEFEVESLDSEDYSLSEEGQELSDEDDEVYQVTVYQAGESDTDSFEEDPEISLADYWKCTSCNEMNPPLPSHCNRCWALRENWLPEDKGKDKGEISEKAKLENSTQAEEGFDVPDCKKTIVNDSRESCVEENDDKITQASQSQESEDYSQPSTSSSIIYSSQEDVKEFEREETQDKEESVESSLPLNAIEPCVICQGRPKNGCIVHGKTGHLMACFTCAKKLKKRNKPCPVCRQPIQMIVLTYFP

With `CCOCCN(CCOCC)C(=O)CN1CCN(C(=O)N2C(c3cc(S(C)(=O)=O)c(Cl)cc3OCC)=N[C@@](C)(c3ccc(Cl)cc3)[C@@]2(C)c2ccc(Cl)cc2)CC1` [Example 16, 2-{4-[(4S,5R)-2-(4-Chloro-2-ethoxy-5-methanesulfonyl-phenyl)-4,5-bis-(4-chloro-phenyl)-4,5-dimethyl-4,5-dihydro-imidazole-1-carbonyl]-piperazin-1-yl}-N,N-bis-(2-ethoxy-ethyl)-acetamide] the IC50 (GST-tagged MDMX) was 849 nM and the IC50 [1] was 5 nM.
Work on `CCOc1cc(Cl)c(S(C)(=O)=O)cc1C1=N[C@@](C)(c2ccc(Cl)cc2)[C@@](C)(c2ccc(Cl)cc2)N1C(=O)N1CCN(CC(=O)N2CCOCC2)CC1` [Example 17, 2-{4-[(4S,5R)-2-(4-Chloro-2-ethoxy-5-methanesulfonyl-phenyl)-4,5-bis-(4-chloro-phenyl)-4,5-dimethyl-4,5-dihydro-imidazole-1-carbonyl]-piperazin-1-yl}-1-morpholin-4-yl-ethanone] yielded an IC50 (GST-tagged MDMX) of 1340 nM and an IC50 [1] of 5.2 nM.
`CCOc1cc(Cl)c(S(C)(=O)=O)cc1C1=N[C@@](C)(c2ccc(Cl)cc2)[C@@](C)(c2ccc(Cl)cc2)N1C(=O)N1CCN(CCS(C)(=O)=O)CC1` [Example 18, [(4S,5R)-2-(4-Chloro-2-ethoxy-5-methanesulfonyl-phenyl)-4,5-bis-(4-chloro-phenyl)-4,5-dimethyl-4,5-dihydro-imidazol-1-yl]-[4-(2-methanesulfonyl-ethyl)-piperazin-1-yl]-methanone] showed an IC50 (GST-tagged MDMX) of 1430 nM and an IC50 [1] of 6 nM.
Compound `CCOc1cc(Cl)c(S(C)(=O)=O)cc1C1=N[C@@](C)(c2ccc(Cl)cc2)[C@@](C)(c2ccc(Cl)cc2)N1C(=O)N1CCC2(CCNCC2)CC1` [Example 19, [(4S,5R)-2-(4-Chloro-2-ethoxy-5-methanesulfonyl-phenyl)-4,5-bis-(4-chloro-phenyl)-4,5-dimethyl-4,5-dihydro-imidazol-1-yl]-(3,9-diaza-spiro[5.5]undec-3-yl)-methanone] has an IC50 (GST-tagged MDMX) of 3770 nM and an IC50 [1] of 12.5 nM.
`CCOc1cc(Cl)c(S(C)(=O)=O)cc1C1=N[C@@](C)(c2ccc(Cl)cc2)[C@@](C)(c2ccc(Cl)cc2)N1C(=O)N1CCN(C2CCS(=O)(=O)C2)CC1` (stereo partly drawn) [Example 20, [(4S,5R)-2-(4-Chloro-2-ethoxy-5-methanesulfonyl-phenyl)-4,5-bis-(4-chloro-phenyl)-4,5-dimethyl-4,5-dihydro-imidazol-1-yl]-[4-(1,1-dioxo-tetrahydro-thiophen-3-yl)-piperazin-1-yl]-methanone] was tested, and the IC50 (GST-tagged MDMX) was 3650 nM and the IC50 [1] was 5.4 nM.
Compound `CCOc1cc(Cl)c(S(C)(=O)=O)cc1C1=N[C@@](C)(c2ccc(Cl)cc2)[C@@](C)(c2ccc(Cl)cc2)N1C(=O)N1CCC2(CCN(CC(N)=O)CC2)CC1` [Example 21, 2-{9-[(4S,5R)-2-(4-Chloro-2-ethoxy-5-methanesulfonyl-phenyl)-4,5-bis-(4-chloro-phenyl)-4,5-dimethyl-4,5-dihydro-imidazole-1-carbonyl]-3,9-diaza-spiro[5.5]undec-3-yl}-acetamide] has an IC50 (GST-tagged MDMX) of 1490 nM and an IC50 [1] of 5.8 nM.
`CCOc1cc(Cl)c(S(C)(=O)=O)cc1C1=N[C@@](C)(c2ccc(Cl)cc2)[C@@](C)(c2ccc(Cl)cc2)N1C(=O)N1CCC(CCCS(C)(=O)=O)CC1` [Example 22, [(4S,5R)-2-(4-Chloro-2-ethoxy-5-methanesulfonyl-phenyl)-4,5-bis-(4-chloro-phenyl)-4,5-dimethyl-4,5-dihydro-imidazol-1-yl]-[4-(3-methanesulfonyl-propyl)-piperidin-1-yl]-methanone] gave an IC50 (GST-tagged MDMX) of 1350 nM and an IC50 [1] of 4.6 nM.
With `CCOc1cc(Cl)c(S(C)(=O)=O)cc1C1=N[C@@](C)(c2ccc(Cl)cc2)[C@@](C)(c2ccc(Cl)cc2)N1C(=O)N1CCN(CC(=O)N(CCOC(C)C)CCOC(C)C)CC1` [Example 23, 2-{4-[(4S,5R)-2-(4-Chloro-2-ethoxy-5-methanesulfonyl-phenyl)-4,5-bis-(4-chloro-phenyl)-4,5-dimethyl-4,5-dihydro-imidazole-1-carbonyl]-piperazin-1-yl}-N,N-bis-(2-isopropoxy-ethyl)-acetamide] the IC50 (GST-tagged MDMX) was 1850 nM and the IC50 [1] was 5.5 nM.
Compound `CCOc1cc(Cl)c(S(C)(=O)=O)cc1C1=N[C@@](C)(c2ccc(Cl)cc2)[C@@](C)(c2ccc(Cl)cc2)N1C(=O)N1CCC(CC(=O)N(CCOC)CCOC)CC1` [Example 24, 2-{1-[(4S,5R)-2-(4-Chloro-2-ethoxy-5-methanesulfonyl-phenyl)-4,5-bis-(4-chloro-phenyl)-4,5-dimethyl-4,5-dihydro-imidazole-1-carbonyl]-piperidin-4-yl}-N,N-bis-(2-methoxy-ethyl)-acetamide] has an IC50 (GST-tagged MDMX) of 1520 nM and an IC50 [1] of 7.2 nM.
`CCOCCN(CCOCC)C(=O)CC1CCN(C(=O)N2C(c3cc(S(C)(=O)=O)c(Cl)cc3OCC)=N[C@@](C)(c3ccc(Cl)cc3)[C@@]2(C)c2ccc(Cl)cc2)CC1` [Example 25, 2-{1-[(4S,5R)-2-(4-Chloro-2-ethoxy-5-methanesulfonyl-phenyl)-4,5-bis-(4-chloro-phenyl)-4,5-dimethyl-4,5-dihydro-imidazole-1-carbonyl]-piperidin-4-yl}-N,N-bis-(2-ethoxy-ethyl)-acetamide] was tested, and the IC50 (GST-tagged MDMX) was 1510 nM and the IC50 [1] was 4.4 nM.
Work on `CCOc1cc(Cl)c(S(C)(=O)=O)cc1C1=N[C@@](C)(c2ccc(Cl)cc2)[C@@](C)(c2ccc(Cl)cc2)N1C(=O)N1CCN(CCS(=O)(=O)CC)CC1` [Example 26, [(4S,5R)-2-(4-Chloro-2-ethoxy-5-methanesulfonyl-phenyl)-4,5-bis-(4-chloro-phenyl)-4,5-dimethyl-4,5-dihydro-imidazol-1-yl]-[4-(2-ethanesulfonyl-ethyl)-piperazin-1-yl]-methanone] yielded an IC50 (GST-tagged MDMX) of 2010 nM and an IC50 [1] of 5.2 nM.
`CCOc1cc(Cl)c(S(C)(=O)=O)cc1C1=N[C@@](C)(c2ccc(Cl)cc2)[C@@](C)(c2ccc(Cl)cc2)N1C(=O)N1CCN(CCC(N)=O)CC1` [Example 27, 3-{4-[(4S,5R)-2-(4-Chloro-2-ethoxy-5-methanesulfonyl-phenyl)-4,5-bis-(4-chloro-phenyl)-4,5-dimethyl-4,5-dihydro-imidazole-1-carbonyl]-piperazin-1-yl}-propionamide] gave an IC50 (GST-tagged MDMX) of 2810 nM and an IC50 [1] of 8.8 nM.
`CCOc1cc(Cl)c(S(C)(=O)=O)cc1C1=N[C@@](C)(c2ccc(Cl)cc2)[C@@](C)(c2ccc(Cl)cc2)N1C(=O)N1CCC2(CCN(CCS(=O)(=O)CC)CC2)CC1` [Example 28, [(4S,5R)-2-(4-Chloro-2-ethoxy-5-methanesulfonyl-phenyl)-4,5-bis-(4-chloro-phenyl)-4,5-dimethyl-4,5-dihydro-imidazol-1-yl]-[9-(2-ethanesulfonyl-ethyl)-3,9-diaza-spiro[5.5]undec-3-yl]-methanone] gave an IC50 (GST-tagged MDMX) of 1490 nM and an IC50 [1] of 4.6 nM.
Work on `CCOc1cc(Cl)c(S(C)(=O)=O)cc1C1=N[C@@](C)(c2ccc(Cl)cc2)[C@@](C)(c2ccc(Cl)cc2)N1C(=O)N1CCN(CC(=O)NC)CC1` [Example 29, 2-{4-[(4S,5R)-2-(4-Chloro-2-ethoxy-5-methanesulfonyl-phenyl)-4,5-bis-(4-chloro-phenyl)-4,5-dimethyl-4,5-dihydro-imidazole-1-carbonyl]-piperazin-1-yl}-N-methyl-acetamide] yielded an IC50 (GST-tagged MDMX) of 1010 nM and an IC50 [1] of 5 nM.
`CCOc1cc(Cl)c(S(C)(=O)=O)cc1C1=N[C@@](C)(c2ccc(Cl)cc2)[C@@](C)(c2ccc(Cl)cc2)N1C(=O)N1CCC(NC(=O)N2CCCC2)CC1` [Example 30, Pyrrolidine-1-carboxylic acid {1-[(4S,5R)-2-(4-chloro-2-ethoxy-5-methanesulfonyl-phenyl)-4,5-bis-(4-chloro-phenyl)-4,5-dimethyl-4,5-dihydro-imidazole-1-carbonyl]-piperidin-4-yl}-amide] gave an IC50 (GST-tagged MDMX) of 3350 nM and an IC50 [1] of 12.7 nM.
Work on `CCOc1cc(Cl)c(S(C)(=O)=O)cc1C1=N[C@@](C)(c2ccc(Cl)cc2)[C@@](C)(c2ccc(Cl)cc2)N1C(=O)N1CCC(NC(=O)NC2CCCC2)CC1` [Example 31, 1-{1-[(4S,5R)-2-(4-Chloro-2-ethoxy-5-methanesulfonyl-phenyl)-4,5-bis-(4-chloro-phenyl)-4,5-dimethyl-4,5-dihydro-imidazole-1-carbonyl]-piperidin-4-yl}-3-cyclopentyl-urea] yielded an IC50 (GST-tagged MDMX) of 1590 nM and an IC50 [1] of 5.3 nM.
